From ChEMBL document CHEMBL1909046, “DrugMatrix in vitro pharmacology data” come the findings set out here.

Assay [1] has as its target Beta-3 adrenergic receptor (Homo sapiens, UniProt P13945). Nature of the assay: DRUGMATRIX: Adrenergic beta3 radioligand binding (ligand: [125I] Cyanopindolol). It counts as cell membranes, HEK293, Membrane. The note with it: hek293; Not Active = under 50% inhibition at 10 µM.
The next assay addresses T1, Progesterone receptor (Bos taurus, UniProt Q690N0).
T1 sequence (Q690N0 whole entry): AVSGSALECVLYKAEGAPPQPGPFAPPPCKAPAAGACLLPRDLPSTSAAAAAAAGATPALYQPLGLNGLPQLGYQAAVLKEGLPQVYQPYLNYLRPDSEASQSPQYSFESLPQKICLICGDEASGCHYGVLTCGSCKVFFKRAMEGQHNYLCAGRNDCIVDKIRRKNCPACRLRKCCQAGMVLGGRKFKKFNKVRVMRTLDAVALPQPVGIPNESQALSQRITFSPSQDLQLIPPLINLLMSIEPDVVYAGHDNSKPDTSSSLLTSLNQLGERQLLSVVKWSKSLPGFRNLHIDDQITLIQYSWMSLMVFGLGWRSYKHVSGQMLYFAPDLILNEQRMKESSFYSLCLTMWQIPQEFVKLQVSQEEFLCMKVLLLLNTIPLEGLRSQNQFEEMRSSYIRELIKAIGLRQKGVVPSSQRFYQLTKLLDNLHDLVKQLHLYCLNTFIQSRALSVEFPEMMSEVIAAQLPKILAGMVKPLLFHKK
Nature of the assay: DRUGMATRIX: Progesterone radioligand binding (ligand: [3H] R-5020). It counts as tissue-based, Uterus. The note with it: Not Active = under 50% inhibition at 10 µM; for Ki: read-out: Ki.

For assay [2], the target named is Protein kinase C alpha type (Homo sapiens, UniProt P17252). It counts as cell-based. The note with it: sf9.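 Further: inhibition of PKCalpha kinase activity measured in an enzyme assay with histone as the phosphorylation substrate; in other assays of this panel Not Active means under 50% inhibition at 10 µM.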
Assay [3] addresses Epidermal growth factor receptor (Homo sapiens, UniProt P00533). Nature of the assay: DRUGMATRIX: Protein Tyrosine Kinase, EGF Receptor enzyme inhibition (substrate: Poly(Glu:Tyr)). It counts as cell-based, Insect cells. The settings on record: insect cells; Not Active = under 50% inhibition at 10 µM.
Assay [4] deals with Receptor tyrosine-protein kinase erbB-2 (Homo sapiens, UniProt P04626). Put plainly: biochemical. It counts as cell-based, Insect cells. The settings on record: insect cells.
Receptor tyrosine-protein kinase erbB-2, sequence (P04626 whole entry): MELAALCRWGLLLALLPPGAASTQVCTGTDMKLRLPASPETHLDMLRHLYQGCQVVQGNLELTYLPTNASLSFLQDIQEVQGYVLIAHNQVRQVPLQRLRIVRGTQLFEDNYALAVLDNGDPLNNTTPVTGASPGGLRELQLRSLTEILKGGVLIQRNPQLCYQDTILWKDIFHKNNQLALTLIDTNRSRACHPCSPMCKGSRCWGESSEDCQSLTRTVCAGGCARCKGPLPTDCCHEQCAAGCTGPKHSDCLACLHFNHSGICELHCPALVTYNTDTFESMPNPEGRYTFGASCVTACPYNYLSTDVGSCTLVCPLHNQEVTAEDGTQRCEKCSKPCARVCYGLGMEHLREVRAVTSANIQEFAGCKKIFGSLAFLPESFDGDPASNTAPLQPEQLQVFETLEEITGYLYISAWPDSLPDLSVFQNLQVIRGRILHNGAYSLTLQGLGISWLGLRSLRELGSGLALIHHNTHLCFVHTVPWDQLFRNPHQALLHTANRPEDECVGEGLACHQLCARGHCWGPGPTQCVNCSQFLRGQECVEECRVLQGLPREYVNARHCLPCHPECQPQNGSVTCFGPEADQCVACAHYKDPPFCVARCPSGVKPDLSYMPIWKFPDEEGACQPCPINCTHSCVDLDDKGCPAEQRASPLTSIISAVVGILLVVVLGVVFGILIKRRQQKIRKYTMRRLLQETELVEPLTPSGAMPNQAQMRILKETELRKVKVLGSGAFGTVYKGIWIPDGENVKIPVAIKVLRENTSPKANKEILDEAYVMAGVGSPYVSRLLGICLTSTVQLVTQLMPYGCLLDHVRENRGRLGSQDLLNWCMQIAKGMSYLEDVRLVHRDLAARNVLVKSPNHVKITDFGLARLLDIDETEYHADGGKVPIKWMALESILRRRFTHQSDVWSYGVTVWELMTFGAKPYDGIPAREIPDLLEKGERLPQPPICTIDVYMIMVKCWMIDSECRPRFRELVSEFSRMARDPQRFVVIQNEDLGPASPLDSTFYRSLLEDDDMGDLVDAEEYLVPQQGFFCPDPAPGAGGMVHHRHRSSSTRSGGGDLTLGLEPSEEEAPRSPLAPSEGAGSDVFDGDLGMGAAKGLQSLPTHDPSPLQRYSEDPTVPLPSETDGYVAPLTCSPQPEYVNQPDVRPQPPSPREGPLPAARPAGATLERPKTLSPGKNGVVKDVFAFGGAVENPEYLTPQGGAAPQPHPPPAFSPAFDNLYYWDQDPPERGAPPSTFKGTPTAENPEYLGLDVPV

Beta-3 adrenergic receptor, sequence (P13945 whole entry): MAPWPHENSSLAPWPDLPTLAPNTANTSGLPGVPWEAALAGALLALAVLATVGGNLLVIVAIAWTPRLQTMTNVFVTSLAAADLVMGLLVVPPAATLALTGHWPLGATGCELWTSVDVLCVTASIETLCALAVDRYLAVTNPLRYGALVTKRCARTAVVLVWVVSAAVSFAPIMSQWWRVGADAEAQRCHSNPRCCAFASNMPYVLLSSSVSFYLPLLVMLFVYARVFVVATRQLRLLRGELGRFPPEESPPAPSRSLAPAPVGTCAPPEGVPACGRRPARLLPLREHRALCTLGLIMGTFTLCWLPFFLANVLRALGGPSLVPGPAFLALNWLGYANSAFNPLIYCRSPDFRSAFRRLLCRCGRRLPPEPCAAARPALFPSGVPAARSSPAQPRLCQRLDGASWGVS
Epidermal growth factor receptor, sequence (P00533 whole entry): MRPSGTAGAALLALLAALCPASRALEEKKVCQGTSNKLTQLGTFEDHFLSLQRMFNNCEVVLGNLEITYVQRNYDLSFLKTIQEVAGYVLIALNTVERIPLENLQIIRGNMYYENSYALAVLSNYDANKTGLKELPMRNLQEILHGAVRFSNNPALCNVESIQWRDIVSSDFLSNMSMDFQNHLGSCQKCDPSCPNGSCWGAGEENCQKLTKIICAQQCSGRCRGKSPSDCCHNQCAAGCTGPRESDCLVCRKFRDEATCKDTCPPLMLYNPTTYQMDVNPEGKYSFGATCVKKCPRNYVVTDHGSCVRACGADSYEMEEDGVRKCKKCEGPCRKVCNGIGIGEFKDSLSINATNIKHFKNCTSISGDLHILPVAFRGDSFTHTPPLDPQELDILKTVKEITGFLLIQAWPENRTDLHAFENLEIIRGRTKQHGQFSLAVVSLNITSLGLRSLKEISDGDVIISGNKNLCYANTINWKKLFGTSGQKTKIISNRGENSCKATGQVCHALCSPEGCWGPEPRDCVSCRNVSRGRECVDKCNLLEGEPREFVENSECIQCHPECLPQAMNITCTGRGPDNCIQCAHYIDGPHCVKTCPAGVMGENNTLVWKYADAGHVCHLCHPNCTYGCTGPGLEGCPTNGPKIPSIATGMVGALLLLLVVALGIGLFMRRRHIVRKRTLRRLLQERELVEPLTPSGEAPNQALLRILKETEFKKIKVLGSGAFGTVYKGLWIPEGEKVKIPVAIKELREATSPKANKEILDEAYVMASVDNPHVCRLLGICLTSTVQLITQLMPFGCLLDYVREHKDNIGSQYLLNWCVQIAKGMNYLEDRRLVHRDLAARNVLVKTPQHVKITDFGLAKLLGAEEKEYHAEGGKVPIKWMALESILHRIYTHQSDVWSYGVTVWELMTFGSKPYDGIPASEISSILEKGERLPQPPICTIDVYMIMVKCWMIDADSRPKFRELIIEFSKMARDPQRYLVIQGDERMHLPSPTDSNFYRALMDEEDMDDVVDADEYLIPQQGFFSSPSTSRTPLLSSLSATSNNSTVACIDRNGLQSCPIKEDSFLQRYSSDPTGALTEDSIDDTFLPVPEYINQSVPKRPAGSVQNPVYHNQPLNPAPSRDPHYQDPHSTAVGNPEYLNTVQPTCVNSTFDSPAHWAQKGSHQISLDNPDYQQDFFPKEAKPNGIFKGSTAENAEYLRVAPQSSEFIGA

In the case of `C=C(CC)C(=O)c1ccc(OCC(=O)O)c(Cl)c1Cl` [ETHACRYNIC ACID], the IC50 entry (in assay [1]; at Progesterone receptor; in assay [2]; in assay [3]; in assay [4]) was “Not Active” each time.

Take `C#C[C@]1(O)CC[C@H]2[C@@H]3CCc4cc(O)ccc4[C@H]3CC[C@@]21C` [ETHINYL ESTRADIOL]: the IC50 result was “Not Active” in assay [1]; 1070 nM on Progesterone receptor (read-out: IC50); “Not Active” in assay [2]; “Not Active” in assay [3]; “Not Active” in assay [4]. Besides, the inhibition constant (Ki) on Progesterone receptor was 139 nM.

On to `OCCO` [ETHYLENE GLYCOL], for which the 50% inhibitory concentration (IC50) result (in assay [1]; on Progesterone receptor; in assay [2]; in assay [3]; in assay [4]) was “Not Active” each time.

Take `CC(=O)OCC(CCn1cnc2cnc(N)nc21)COC(C)=O` [FAMCICLOVIR]: the IC50 result (in assay [1]; at Progesterone receptor; in assay [2]; in assay [3]; in assay [4]) was “Not Active” in each case.

In the case of `O=C(O)Cc1ccc(-c2ccccc2)cc1` [FELBINAC], the concentration for half-maximal inhibition (IC50) result (in assay [1]; at Progesterone receptor; in assay [2]; in assay [3]; in assay [4]) was “Not Active” throughout.

Regarding `CCOC(=O)C1=C(C)NC(C)=C(C(=O)OC)C1c1cccc(Cl)c1Cl` (configuration not stated) [FELODIPINE], the IC50 entry (in assay [1]; at Progesterone receptor; in assay [2]; in assay [3]; in assay [4]) was “Not Active” in each case.

Consider `Cc1cn[nH]c1` [FOMEPIZOLE], for which the IC50 result (in assay [1]; at Progesterone receptor; in assay [2]; in assay [3]; in assay [4]) was “Not Active” in each case.

For the compound `NC[C@@H]1O[C@H](O[C@H]2[C@@H](O)[C@H](O[C@@H]3[C@@H](O)[C@H](N)C[C@H](N)[C@H]3O[C@H]3O[C@H](CN)[C@@H](O)[C@H](O)[C@H]3N)O[C@@H]2CO)[C@H](N)[C@@H](O)[C@@H]1O` [FRAMYCETIN], the half-inhibitory concentration (IC50) entry (in assay [1]; on Progesterone receptor; in assay [2]; in assay [3]; in assay [4]) was “Not Active” throughout.

`C[C@H]([C@](O)(Cn1cncn1)c1ccc(F)cc1F)S(C)(=O)=O` [GENACONAZOLE]: the IC50 entry (in assay [1]; at Progesterone receptor; in assay [2]; in assay [3]; in assay [4]) was “Not Active” in each case.

Turning to `Cc1cnc(C(=O)NCCc2ccc(S(=O)(=O)NC(=O)NC3CCCCC3)cc2)cn1` [GLIPIZIDE], the half-maximal inhibitory concentration (IC50) entry (in assay [1]; on Progesterone receptor; in assay [2]; in assay [3]; in assay [4]) was “Not Active” throughout.

As to `Cc1c(F)c(N2CCNC(C)C2)cc2c1c(=O)c(C(=O)O)cn2C1CC1` (configuration not stated) [GREPAFLOXACIN], the half-maximal inhibitory concentration (IC50) result (in assay [1]; on Progesterone receptor; in assay [2]; in assay [3]; in assay [4]) was “Not Active” each time.

For the compound `COc1ccccc1OCC(O)CO` (configuration not stated) [GUAIFENESIN], the IC50 entry (in assay [1]; on Progesterone receptor; in assay [2]; in assay [3]; in assay [4]) was “Not Active” throughout.

Regarding `N=C(N)N/N=C/c1c(Cl)cccc1Cl` [GUANABENZ], the IC50 entry (in assay [1]; at Progesterone receptor; in assay [2]; in assay [3]; in assay [4]) was “Not Active” throughout.

Regarding `C[C@]12CCC(=O)C=C1CC[C@@H]1[C@@H]2[C@@H](O)C[C@@]2(C)[C@H]1CC[C@]2(O)C(=O)CO` [HYDROCORTISONE], the IC50 entry (in assay [1]; on Progesterone receptor; in assay [2]; in assay [3]; in assay [4]) was “Not Active” throughout.

Turning to `C/C=C\c1ccc(O)c(OC)c1` [ISOEUGENOL], the half-inhibitory concentration (IC50) entry (in assay [1]; on Progesterone receptor; in assay [2]; in assay [3]; in assay [4]) was “Not Active” each time.

Turning to `NC[C@H]1O[C@H](O[C@H]2[C@H](O)[C@@H](O[C@H]3O[C@H](CO)[C@@H](O)[C@H](N)[C@H]3O)[C@H](N)C[C@@H]2N)[C@H](O)[C@@H](O)[C@@H]1O` [KANAMYCIN], the IC50 entry (in assay [1]; on Progesterone receptor; in assay [2]; in assay [3]; in assay [4]) was “Not Active” in each case.

On to `CC[C@H](C)C(=O)O[C@H]1C[C@@H](C)C=C2C=C[C@H](C)[C@H](CC[C@@H]3C[C@@H](O)CC(=O)O3)[C@H]21` [LOVASTATIN], for which the half-inhibitory concentration (IC50) entry (in assay [1]; at Progesterone receptor; in assay [2]; in assay [3]; in assay [4]) was “Not Active” in each case.

For `CC(C(=O)O)c1ccc(CC2CCCC2=O)cc1` (configuration not stated) [LOXOPROFEN], the IC50 result (in assay [1]; at Progesterone receptor; in assay [2]; in assay [3]; in assay [4]) was “Not Active” in each case.

On to `Cc1cccc(Nc2ccccc2C(=O)O)c1C` [MEFENAMIC ACID], for which the IC50 result (in assay [1]; on Progesterone receptor; in assay [2]; in assay [3]; in assay [4]) was “Not Active” in each case.

With `CC(=O)O[C@]1(C(C)=O)CC[C@H]2[C@@H]3C=C(C)C4=CC(=O)CC[C@]4(C)[C@H]3CC[C@@]21C` [MEGESTROL ACETATE], the half-maximal inhibitory concentration (IC50) result in assay [1] was “Not Active”; at Progesterone receptor (read-out: IC50), 11 nM; in assay [2], “Not Active”; in assay [3], “Not Active”; in assay [4] it was “Not Active”. Moreover, the Ki on Progesterone receptor stood at 1.44 nM.

Consider `COc1ccccc1OCC(O)COC(N)=O` (configuration not stated) [METHOCARBAMOL], for which the half-maximal inhibitory concentration (IC50) result (in assay [1]; at Progesterone receptor; in assay [2]; in assay [3]; in assay [4]) was “Not Active” throughout.

With `CN(Cc1cnc2nc(N)nc(N)c2n1)c1ccc(C(=O)N[C@@H](CCC(=O)O)C(=O)O)cc1` [METHOTREXATE], the IC50 entry (in assay [1]; on Progesterone receptor; in assay [2]; in assay [3]; in assay [4]) was “Not Active” throughout.

Turning to `COC(=O)c1ccccc1O` [METHYL SALICYLATE], the IC50 entry (in assay [1]; at Progesterone receptor; in assay [2]; in assay [3]; in assay [4]) was “Not Active” each time.

As to `COc1ccc2cc(CCC(C)=O)ccc2c1` [NABUMETONE], the half-maximal inhibitory concentration (IC50) result (in assay [1]; on Progesterone receptor; in assay [2]; in assay [3]; in assay [4]) was “Not Active” each time.

On to `O=C(O)c1cccnc1` [NIACIN], for which the IC50 result (in assay [1]; at Progesterone receptor; in assay [2]; in assay [3]; in assay [4]) was “Not Active” each time.

As to `CNC(=C[N+](=O)[O-])NCCSCc1csc(CN(C)C)n1` [NIZATIDINE], the IC50 entry (in assay [1]; at Progesterone receptor; in assay [2]; in assay [3]; in assay [4]) was “Not Active” each time.

Consider `C[C@]12C/C(=C/O)C(=O)C[C@@H]1CC[C@@H]1[C@@H]2CC[C@@]2(C)[C@H]1CC[C@]2(C)O` [OXYMETHOLONE], for which the IC50 entry (in assay [1]; at Progesterone receptor; in assay [2]; in assay [3]; in assay [4]) was “Not Active” throughout.

As for `CC(C)(CO)C(O)C(=O)NCCCO` (configuration not stated) [PANTHENOL], the IC50 entry (in assay [1]; at Progesterone receptor; in assay [2]; in assay [3]; in assay [4]) was “Not Active” each time.

Turning to `COc1ccc(Cc2nccc3cc(OC)c(OC)cc23)cc1OC` [PAPAVERINE], the IC50 entry (in assay [1]; at Progesterone receptor; in assay [2]; in assay [3]; in assay [4]) was “Not Active” in each case.

For `OCCN1CCN(CCCN2c3ccccc3Sc3ccc(Cl)cc32)CC1` [PERPHENAZINE], the IC50 entry (in assay [1]; on Progesterone receptor; in assay [2]; in assay [3]; in assay [4]) was “Not Active” in each case.

For the compound `CCCCC1C(=O)N(c2ccccc2)N(c2ccccc2)C1=O` [PHENYLBUTAZONE], the half-maximal inhibitory concentration (IC50) result (in assay [1]; at Progesterone receptor; in assay [2]; in assay [3]; in assay [4]) was “Not Active” in each case.

By IC50 is commonly meant the point on the concentration scale where inhibition reaches its midpoint. As a reminder, the Ki is a measure of affinity in units of concentration, obtained from inhibition or displacement.
